Measured values as given in PubChem BioAssay (NCI).
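Five compound concentrations were applied to cells in 96-well plates for 48 hours; endpoints were derived by simple linear interpolation of the resulting dose-response curve. TGI: total growth inhibition.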

Tests used:
Assay in all cases: NCI-60 cell line screen, 48 h
[1] = system: A549 NSCLC
[2] = system: ACHN renal
[3] = system: CCRF-CEM leukemia
[4] = system: K-562 leukemia
[5] = system: KM12 colon
[6] = system: LOX IMVI melanoma
[7] = system: MOLT-4 leukemia
[8] = system: NCI-H226 lung
[9] = system: NCI-H23 lung
[10] = system: NCI/ADR-RES ovarian
[11] = system: PC-3 prostate
[12] = system: SF-539 CNS
[13] = system: SK-MEL-2 melanoma
[14] = system: SN12C renal
[15] = system: SW-620 colon
[16] = system: UACC-257 melanoma
[17] = system: A498 renal

NCCCCC(N)C(=O)N1CCN(c2nc(N3CCCC3)c3nc(Cl)c(NCc4ccccc4)nc3n2)CC1 (stereo not given)
TGI [1]: 37.3 µM | TGI [2]: 38.1 µM | TGI [3]: 37.7 µM | TGI [4]: 47.2 µM | TGI [5]: 47.2 µM | TGI [6]: 35.9 µM | TGI [7]: 50.6 µM | TGI [8]: 45.6 µM | TGI [9]: 37.9 µM | TGI [10]: > 100 µM | TGI [11]: 32.1 µM | TGI [12]: 37.6 µM | TGI [13]: 35.9 µM | TGI [14]: 34.3 µM | TGI [15]: 47.7 µM | TGI [16]: 35.5 µM

COc1ccc(-c2nc(N(C)C)c3ccccc3n2)cc1
TGI [1]: 46.8 µM | TGI [2]: 53.5 µM | TGI [4]: 40.7 µM | TGI [5]: 68.8 µM | TGI [6]: 28.8 µM | TGI [7]: 15.8 µM | TGI [8]: 21.8 µM | TGI [9]: 69 µM | TGI [10]: 36.7 µM | TGI [11]: 58.8 µM | TGI [12]: 42.8 µM | TGI [13]: 41.7 µM | TGI [14]: 39.8 µM | TGI [15]: 63.5 µM | TGI [16]: 32.6 µM

Cc1ccc(C2(C)NC(=S)N(NC(N)=S)C2=S)cc1 (stereo not given)
TGI [17]: > 100 µM | TGI [1]: > 100 µM | TGI [2]: > 100 µM | TGI [3]: > 100 µM | TGI [4]: > 100 µM | TGI [6]: > 100 µM | TGI [7]: > 100 µM | TGI [8]: > 100 µM | TGI [9]: > 100 µM | TGI [12]: > 100 µM | TGI [13]: > 100 µM | TGI [14]: > 100 µM | TGI [15]: > 100 µM | TGI [16]: > 100 µM

C=C1C(=O)OC2C[C@H](C)C3CC(=O)C(C)=C3CC12 (stereo not given in full)
TGI [17]: 43.7 µM | TGI [1]: 69.1 µM | TGI [2]: 25.5 µM | TGI [3]: 15.7 µM | TGI [4]: 23.1 µM | TGI [5]: 33.3 µM | TGI [6]: 30.4 µM | TGI [7]: 23.3 µM | TGI [8]: 30.6 µM | TGI [9]: 28.7 µM | TGI [12]: 35 µM | TGI [13]: 29 µM | TGI [14]: 26.1 µM | TGI [15]: 18.7 µM | TGI [16]: 28.6 µM

Cc1c(/C=N/NC(=O)c2ccccc2)c(=O)n(-c2ccccc2)n1C
TGI [17]: > 100 µM | TGI [1]: > 100 µM | TGI [2]: > 100 µM | TGI [3]: > 100 µM | TGI [4]: > 100 µM | TGI [5]: > 100 µM | TGI [6]: > 100 µM | TGI [7]: > 100 µM | TGI [8]: > 100 µM | TGI [9]: > 100 µM | TGI [12]: > 100 µM | TGI [13]: > 100 µM | TGI [14]: > 100 µM | TGI [15]: > 100 µM | TGI [16]: > 100 µM

O=C1NC2OCC(O)C(O1)C2O (stereo not given)
TGI [17]: > 100 µM | TGI [2]: > 100 µM | TGI [3]: > 100 µM | TGI [4]: > 100 µM | TGI [5]: > 100 µM | TGI [6]: > 100 µM | TGI [7]: > 100 µM | TGI [8]: > 100 µM | TGI [9]: > 100 µM | TGI [12]: > 100 µM | TGI [13]: > 100 µM | TGI [14]: > 100 µM | TGI [15]: > 100 µM | TGI [16]: > 100 µM

CSc1c(CC(=O)O)n(Cc2ccccc2)c2ccccc12
TGI [17]: > 100 µM | TGI [1]: > 100 µM | TGI [2]: > 100 µM | TGI [3]: > 100 µM | TGI [4]: > 100 µM | TGI [5]: > 100 µM | TGI [6]: > 100 µM | TGI [7]: > 100 µM | TGI [9]: > 100 µM | TGI [10]: > 100 µM | TGI [11]: > 100 µM | TGI [12]: > 100 µM | TGI [13]: > 100 µM | TGI [14]: > 100 µM | TGI [15]: > 100 µM | TGI [16]: > 100 µM

C=CC1(c2ccc3ccccc3c2)OCC(CC)(CC)CO1
TGI [1]: > 100 µM | TGI [2]: 38.8 µM | TGI [3]: 40.1 µM | TGI [4]: 48.1 µM | TGI [5]: 40.6 µM | TGI [6]: 34.5 µM | TGI [7]: 38.8 µM | TGI [8]: 33.4 µM | TGI [9]: 49.3 µM | TGI [10]: 66.4 µM | TGI [11]: 65.5 µM | TGI [12]: 33.5 µM | TGI [13]: 34.7 µM | TGI [14]: 44.5 µM | TGI [15]: 43.4 µM | TGI [16]: 64.2 µM

Cc1ccc(S(=O)(=O)NC(=O)C2(Br)S(=O)(=O)OCCOS2(=O)=O)cc1
TGI [17]: > 100 µM | TGI [1]: > 100 µM | TGI [2]: > 100 µM | TGI [3]: > 100 µM | TGI [4]: > 100 µM | TGI [6]: > 100 µM | TGI [7]: > 100 µM | TGI [8]: > 100 µM | TGI [9]: > 100 µM | TGI [12]: > 100 µM | TGI [13]: > 100 µM | TGI [14]: > 100 µM | TGI [16]: > 100 µM

Nc1ccn([C@H]2CO[C@@H](CO)O2)c(=O)n1
TGI [1]: > 100 µM | TGI [2]: 7.87 µM | TGI [3]: > 92 µM | TGI [4]: > 100 µM | TGI [5]: > 100 µM | TGI [6]: > 100 µM | TGI [7]: 49.5 µM | TGI [8]: > 100 µM | TGI [9]: > 100 µM | TGI [10]: > 100 µM | TGI [11]: > 100 µM | TGI [12]: 68.4 µM | TGI [13]: > 100 µM | TGI [14]: > 100 µM | TGI [15]: > 100 µM | TGI [16]: > 100 µM

COc1c(C(=O)/C(=N/Nc2ccccc2)C(C)=O)c(O)c(OC)c2occc12
TGI [1]: > 100 µM | TGI [2]: > 100 µM | TGI [3]: > 100 µM | TGI [4]: > 100 µM | TGI [5]: > 100 µM | TGI [6]: > 100 µM | TGI [7]: > 100 µM | TGI [8]: > 100 µM | TGI [9]: > 100 µM | TGI [10]: > 100 µM | TGI [11]: > 100 µM | TGI [12]: > 100 µM | TGI [13]: > 100 µM | TGI [14]: > 100 µM | TGI [15]: > 100 µM | TGI [16]: > 100 µM

COCC[N+](CCNC(=O)c1cccc2c(N)c3cccc(C)c3nc12)(CCOC)Cc1ccc([N+](=O)[O-])cc1
TGI [1]: > 100 µM | TGI [2]: > 100 µM | TGI [3]: 58.1 µM | TGI [5]: 30.9 µM | TGI [6]: 81.5 µM | TGI [7]: 39.2 µM | TGI [9]: > 100 µM | TGI [10]: > 100 µM | TGI [11]: > 100 µM | TGI [12]: 56.7 µM | TGI [13]: > 100 µM | TGI [14]: > 100 µM | TGI [15]: > 100 µM | TGI [16]: 46 µM

CC(C)=CCC/C(C)=C/CC/C(C)=C/CC/C=C(\C)CC/C=C(\C)CCC1SC1(C)C (stereo not given)
TGI [17]: > 100 µM | TGI [1]: > 100 µM | TGI [2]: > 100 µM | TGI [3]: > 100 µM | TGI [4]: > 100 µM | TGI [5]: > 100 µM | TGI [6]: > 100 µM | TGI [7]: > 100 µM | TGI [8]: > 100 µM | TGI [9]: > 100 µM | TGI [12]: > 100 µM | TGI [13]: > 100 µM | TGI [14]: > 100 µM | TGI [15]: > 100 µM | TGI [16]: > 100 µM

CC(N)C(=O)c1ccc(O)cc1 (stereo not given)
TGI [17]: > 100 µM | TGI [1]: > 100 µM | TGI [2]: > 100 µM | TGI [3]: > 100 µM | TGI [4]: > 100 µM | TGI [5]: > 100 µM | TGI [6]: > 100 µM | TGI [7]: > 100 µM | TGI [8]: > 100 µM | TGI [9]: > 100 µM | TGI [12]: > 100 µM | TGI [13]: > 100 µM | TGI [14]: > 100 µM | TGI [15]: > 100 µM | TGI [16]: > 100 µM

CC1=C2C(=O)C3[C@@H](CCC4=CC(=O)CC[C@@]43C)C2CC[C@]12O[C@@H]1C[C@H](C)CN[C@H]1[C@H]2C (stereo not given in full)
TGI [17]: > 100 µM | TGI [1]: > 100 µM | TGI [2]: > 100 µM | TGI [3]: 40.1 µM | TGI [4]: 36.4 µM | TGI [5]: > 100 µM | TGI [6]: > 100 µM | TGI [7]: 41.4 µM | TGI [8]: > 100 µM | TGI [9]: > 100 µM | TGI [12]: > 100 µM | TGI [13]: 63.2 µM | TGI [14]: > 100 µM | TGI [15]: > 100 µM | TGI [16]: > 100 µM
